Measured values taken from patent US20240115496A1, “A COMPOUND DRY POWDER INHALANT AND USE THEREOF” (TIANJIN UNIVERSITY OF TRADITIONAL CHINESE MEDICINE, priority 2021, published 2024).

Legend:
[1] = Particle size distribution test, laser particle size analyzer, dry dispersion; type: physicochemical
Procedure: The particle size distribution of DPI dry powder was measured by dry dispersion method using laser particle size analyzer, and Dv10, Dv50, Dv90, VMD (Volume median diameter) and SMD (Sauter mean diameter) were determined, respectively.

[2] = In vivo pharmacokinetics, lung tissue homogenate (UPLC-MS/MS); parameters: species or system rat; settings: for CL/F (clearance) / Cmax / Tmax / half-life / MRT last: BA in rat lung tissue; for concentration at 2 min / concentration at 4 min / concentration at 10 min / concentration at 15 min / concentration at 30 min / concentration at 60 min / concentration at 120 min / concentration at 240 min / concentration at 360 min / Cmax / Tmax / half-life / MRT last: male, Sprague-Dawley (SD); for concentration at 2 min / concentration at 4 min / concentration at 10 min / concentration at 15 min / concentration at 30 min / concentration at 60 min / concentration at 120 min / concentration at 240 min / concentration at 360 min: rat lung tissue homogenate, read-out: Drug concentration of BA in lung tissue; for Cmax / Tmax / half-life / MRT last: lung tissue (homogenate supernatant); for half-life: read-out: HLz (biological half-life) (converted); for MRT last: read-out: MRTlast (mean retention time)
Procedure: (§1) SPF-grade healthy SD male rats, body weight 180-220 g, purchased from SPF (Beijing) Biotechnology Co., Ltd (Certificate No. SCXK (Beijing) 2019-0010), were conventionally reared under (23±2)° C., humidity: (50±10)%. This study was conducted with the approval of the Animal Experiment Center of Tianjin University of Traditional Chinese Medicine.
(§2) 108 SPF-grade SD male rats were randomly divided into tail intravenous injection group and pulmonary administration group, with 9 time points of 2 min, 4 min, 10 min, 15 min, 30 min, 1 h, 2 h, 4 h and 6 h per group, 6 rats per time point per group. The rats were fasted for 12 h before the experiment, with water provided. The rats were weighed (to calculate the dose) and numbered, and both groups were intraperitoneally injected with 10% chloral hydrate at a dose of 2 mL/kg. Group 1 was administered BA/AH-DPI saline solution by tail intravenous injection at a dose of 9 mg/kg. Group 2 was administered 3 mg of BA/AH-DPI fine powder at the same dose by spray administration with a DP-4 tracheal insufflator (1.5 mL of air was pushed each time, 3-4 times consecutively). Blood was sampled from the abdominal aorta of the rats in both groups at the above time points after drug administration, and the rats were executed. The obtained whole blood was placed in a centrifuge tube with sodium heparin, centrifuged at 4000 r/min for 10 min, and the upper layer of plasma was separated and stored a refrigerator at −80° C. After blood collection, the thoracic cavity was quickly opened and the lungs of the rats were isolated. The small amount of floating blood on the surface of the lung tissue was washed with saline in an ice bath. The surface of the lung tissue was blotted with filter paper. The trachea was cut off, wrapped in tin foil and placed in a 10 mL centrifuge tube. The lung was weighed precisely, and stored in a refrigerator at −80° C.
The lung tissues were added to saline in a weight to volume ratio of 1:4 (g:mL). A homogenate was obtained by beating, dispersing and evenly grinding with a homogenizer under an ice water bath, and centrifuged at 6500 r/min for 20 min to obtain the supernatant of the lung tissue homogenate.
(§3) 100 μL of the plasma sample or lung tissue supernatant was precisely absorbed, and 200 μL (100 ng/mL) of methanol solution containing the internal standard was added. The mixture was vortexed and mixed for 3 min, and centrifuged at 12000 r/min for 10 min to obtain the supernatant as the finished sample. The contents of BA and AH were determined by UPLC-MS/MS method.
(§4) Electrospray ion source (ESI source); scan mode: positive (ESI+) detection; detection mode: multi-reactive ion monitoring (MRM). Electrospray voltage: 4 kV; atomization gas: N2; spray gas flow rate (Gas1): 15 psi; ion source temperature: 300° C.
(§5) Meaning of pharmacokinetic parameters: HLz was the biological half-life, i.e., the time required for the amount or blood concentration of the drug in the body to decrease by half; Tmax was the time to peak, i.e., the time required to reach the peak concentration of the drug after administration. Cmax was the peak drug concentration, i.e., the highest blood concentration that occurred after administration of the drug. AUC was the area enclosed by the blood drug concentration curve against the time axis. Vz/F was the apparent volume of distribution, the ratio constant of the amount of drug in the body to the blood concentration when the drug reached dynamic equilibrium in the body. CL/F was the clearance, i.e., the number of apparent volume of distribution of the drug removed from the body per unit time. AUMC was the first order moment of the drug-time curve, i.e. the area under the curse of the product of time and blood concentration versus time. MRTlast was the mean retention time, i.e., the average of the residence time of drug molecules in the body.

[3] = In vivo pharmacokinetics, plasma (UPLC-MS/MS); parameters: species or system rat; settings: for half-life: read-out: HLz (biological half-life) (converted); for MRT last: read-out: MRTlast (mean retention time); for concentration at 2 min / concentration at 10 min / concentration at 15 min / concentration at 30 min / concentration at 60 min / concentration at 120 min / concentration at 240 min / concentration at 360 min / concentration at 4 min: read-out: Blood concentration of BA; for concentration at 4 min: Sprague-Dawley (SD)
Procedure: as §1, §2, §3, §4, §5

[4] = tail intravenous injection group, 9 mg/kg
[5] = inhaled, pulmonary administration BA/AH-DPI 9 mg/kg
[6] = inhaled or intranasal, pulmonary administration group, BA/AH-DPI 9 mg/kg
[7] = tail intravenous injection BA/AH-DPI saline solution 9 mg/kg
[8] = male, SD, inhaled or intranasal, BA in rat plasma, pulmonary administration group, BA/AH-DPI 9 mg/kg
[9] = male, SD, inhaled, rat plasma, pulmonary administration BA/AH-DPI 9 mg/kg
[10] = male, SD, BA in rat plasma, tail intravenous injection group, 9 mg/kg
[11] = male, SD, rat plasma, tail intravenous injection BA/AH-DPI saline solution 9 mg/kg

Question: Which D10 [1] does the source give for O=C(O)[C@H]1O[C@@H](Oc2cc3oc(-c4ccccc4)cc(=O)c3c(O)c2O)[C@H](O)[C@@H](O)[C@@H]1O [BA, baicalin] here?
Answer: 0.88 μm

Question: What about the D50 [1] of the same compound?
Answer: 5.18 μm

Question: And the D90 [1]?
Answer: 12.61 μm

Question: And the “SMD (Sauter mean diameter)” value [1]?
Answer: 2.23 μm

Question: What about the “VMD (Volume median diameter)” value [1] of the same compound?
Answer: 6.05 μm

Question: And the “<3 μm” value ([1]; fraction of particles)?
Answer: 31.81%

Question: What about the “<5 μm” value ([1]; fraction of particles) of the same compound?
Answer: 48.66%

Question: What about the “CL/F (clearance)” value ([2]; pulmonary administration group, BA/AH-DPI 9 mg/kg) of the same compound?
Answer: 800.14 ± 131.95 g/h/kg

Question: And the “CL/F (clearance)” value [2, 4]?
Answer: 29086.90 ± 13876.33 g/h/kg

Question: And the concentration at 2 min [2, 5]?
Answer: 6440 ± 1200 ng/mL

Question: What about the concentration at 4 min [2, 5] of the same compound?
Answer: 4960 ± 1130 ng/mL

Question: And the concentration at 10 min [2, 5]?
Answer: 3190 ± 524 ng/mL

Question: What about the concentration at 15 min [2, 5] of the same compound?
Answer: 1820 ± 346 ng/mL

Question: What about the concentration at 30 min [2, 5] of the same compound?
Answer: 1420 ± 469 ng/mL

Question: And the concentration at 60 min [2, 5]?
Answer: 705 ± 160 ng/mL

Question: What about the concentration at 120 min [2, 5] of the same compound?
Answer: 235 ± 76.2 ng/mL

Question: And the concentration at 240 min [2, 5]?
Answer: 92.2 ± 25.4 ng/mL

Question: And the concentration at 360 min [2, 5]?
Answer: 43.1 ± 16.9 ng/mL

Question: And the Cmax [2, 6]?
Answer: 26000 ± 4490 ng/g

Question: What about the Tmax [2, 6] of the same compound?
Answer: 2.64 ± 1.08 min

Question: What about the half-life [2, 6] of the same compound?
Answer: 84 ± 24 min

Question: What about the MRT last [2, 6] of the same compound?
Answer: 57 ± 5.22 min

Question: What about the Cmax [2, 4] of the same compound?
Answer: 341 ± 112 ng/g

Question: And the Tmax [2, 4]?
Answer: 1.98 min

Question: What about the half-life [2, 4] of the same compound?
Answer: 101 ± 44.4 min

Question: And the MRT last [2, 4]?
Answer: 91.2 ± 36 min

Question: And the concentration at 2 min [2, 7]?
Answer: 85.3 ± 27.9 ng/mL

Question: And the concentration at 4 min [2, 7]?
Answer: 42 ± 7.67 ng/mL

Question: And the concentration at 10 min [2, 7]?
Answer: 45.1 ± 13.6 ng/mL

Question: And the concentration at 15 min [2, 7]?
Answer: 45.8 ± 18.7 ng/mL

Question: What about the concentration at 30 min [2, 7] of the same compound?
Answer: 39.2 ± 22 ng/mL

Question: What about the concentration at 60 min [2, 7] of the same compound?
Answer: 16.3 ± 19.5 ng/mL

Question: And the concentration at 120 min [2, 7]?
Answer: 12.9 ± 10.5 ng/mL

Question: And the concentration at 240 min [2, 7]?
Answer: 8.37 ± 6.37 ng/mL

Question: What about the concentration at 360 min [2, 7] of the same compound?
Answer: 2.71 ± 3.37 ng/mL

Question: What about the “CL/F (clearance)” value ([3]; BA in rat plasma, tail intravenous injection group, 9 mg/kg) of the same compound?
Answer: 98.4805 ± 62.0535 mL/min/kg

Question: What about the Cmax [3, 8] of the same compound?
Answer: 2560 ± 351 ng/mL

Question: What about the Tmax [3, 8] of the same compound?
Answer: 9 ± 4.2 min

Question: What about the CL/F ([3]; male, SD, inhaled or intranasal, BA in rat plasma, pulmonary administration group, BA/AH-DPI 9 mg/kg, read-out: CL/F (clearance) (converted)) of the same compound?
Answer: 121 mL/min/kg

Question: What about the half-life [3, 8] of the same compound?
Answer: 121 ± 38.4 min

Question: And the MRT last [3, 8]?
Answer: 45 ± 5.52 min

Question: What about the Vd/F ([3]; male, SD, inhaled or intranasal, BA in rat plasma, pulmonary administration group, BA/AH-DPI 9 mg/kg, read-out: Vz/F (apparent volume of distribution)) of the same compound?
Answer: 20.9 ± 6.57 L/kg

Question: And the bioavailability ([3]; male, SD, inhaled, rat plasma, pulmonary administration of BA/AH-DPI vs tail intravenous injection, 9 mg/kg, read-out: Absolute bioavailability)?
Answer: 60.7%

Question: What about the concentration at 2 min [3, 9] of the same compound?
Answer: 690 ± 438 ng/mL

Question: And the concentration at 10 min [3, 9]?
Answer: 2320 ± 421 ng/mL

Question: What about the concentration at 15 min [3, 9] of the same compound?
Answer: 1470 ± 588 ng/mL

Question: What about the concentration at 30 min [3, 9] of the same compound?
Answer: 628 ± 95.9 ng/mL

Question: What about the concentration at 60 min [3, 9] of the same compound?
Answer: 289 ± 110 ng/mL

Question: And the concentration at 120 min [3, 9]?
Answer: 57.2 ± 14.2 ng/mL

Question: And the concentration at 240 min [3, 9]?
Answer: 27.4 ± 10.9 ng/mL

Question: And the concentration at 360 min [3, 9]?
Answer: 13.4 ± 3.68 ng/mL

Question: What about the Cmax [3, 10] of the same compound?
Answer: 11800 ± 6050 ng/mL

Question: What about the Tmax [3, 10] of the same compound?
Answer: 2.28 ± 0.6 min

Question: And the half-life [3, 10]?
Answer: 48.6 ± 36 min

Question: What about the MRT last [3, 10] of the same compound?
Answer: 14.4 ± 9.6 min

Question: What about the concentration at 2 min [3, 11] of the same compound?
Answer: 11700 ± 6170 ng/mL

Question: What about the concentration at 10 min [3, 11] of the same compound?
Answer: 933 ± 401 ng/mL

Question: What about the concentration at 15 min [3, 11] of the same compound?
Answer: 693 ± 284 ng/mL

Question: And the concentration at 30 min [3, 11]?
Answer: 338 ± 70.3 ng/mL

Question: What about the concentration at 60 min [3, 11] of the same compound?
Answer: 77 ± 46.1 ng/mL

Question: And the concentration at 120 min [3, 11]?
Answer: 53.7 ± 54.2 ng/mL

Question: And the concentration at 240 min [3, 11]?
Answer: 8.68 ± 8.46 ng/mL

Question: What about the concentration at 360 min [3, 11] of the same compound?
Answer: 2.64 ± 5.27 ng/mL

Question: And the concentration at 4 min ([3]; male, inhaled, rat plasma, pulmonary administration BA/AH-DPI 9 mg/kg)?
Answer: 1740 ± 962 ng/mL

Question: What about the concentration at 4 min ([3]; male, rat plasma, tail intravenous injection BA/AH-DPI saline solution 9 mg/kg) of the same compound?
Answer: 3060 ± 861 ng/mL

Question: What about the “Time of maximum blood concentration in plasma” value ([3]; rat, pulmonary administration of BA/AH-DPI 9 mg/kg) of the same compound?
Answer: around 9 min
